Measured values as given in ChEMBL document CHEMBL1201862, “PubChem BioAssay data set” (2004).
Calls of active or inactive are those of the source.

Columns and labels:
[1] = target: FAD-linked sulfhydryl oxidase ALR (Homo sapiens, UniProt P55789); test: ALR-catalysed DTT oxidation blockers – biochemical, H2O2 detection, luminescence, cherry-pick, dose response (AID 493248)
[2] = target: Large T antigen (Simian virus 40, UniProt P03070); type: functional, Betapolyomavirus macacae;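 further: Confirmatory-stage PubChem screen for compounds that inhibit SV40 T antigen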
Sequence of Large T antigen (P03070 whole entry): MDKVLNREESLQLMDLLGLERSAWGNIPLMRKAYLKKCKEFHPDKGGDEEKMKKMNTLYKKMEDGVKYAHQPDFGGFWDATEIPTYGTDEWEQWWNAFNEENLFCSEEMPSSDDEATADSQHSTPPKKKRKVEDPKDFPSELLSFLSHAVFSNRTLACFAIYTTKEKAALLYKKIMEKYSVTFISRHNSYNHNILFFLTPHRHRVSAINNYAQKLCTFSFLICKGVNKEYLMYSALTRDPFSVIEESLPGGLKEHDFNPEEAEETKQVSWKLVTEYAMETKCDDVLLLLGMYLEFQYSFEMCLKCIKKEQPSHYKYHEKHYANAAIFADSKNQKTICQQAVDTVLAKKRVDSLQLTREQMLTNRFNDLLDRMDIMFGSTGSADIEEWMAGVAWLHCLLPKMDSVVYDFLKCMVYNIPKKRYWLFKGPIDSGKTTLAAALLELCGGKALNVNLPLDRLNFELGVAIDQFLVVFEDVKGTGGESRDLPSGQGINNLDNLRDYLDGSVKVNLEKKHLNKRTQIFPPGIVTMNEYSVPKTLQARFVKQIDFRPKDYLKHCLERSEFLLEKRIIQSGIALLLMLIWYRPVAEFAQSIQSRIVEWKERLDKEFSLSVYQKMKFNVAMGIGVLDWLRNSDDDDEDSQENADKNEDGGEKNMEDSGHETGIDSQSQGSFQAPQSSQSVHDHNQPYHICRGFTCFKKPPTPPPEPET

[3] = target: T1, Protein skinhead-1 (Caenorhabditis elegans, UniProt P34707); type: functional
T1 sequence (P34707 whole entry): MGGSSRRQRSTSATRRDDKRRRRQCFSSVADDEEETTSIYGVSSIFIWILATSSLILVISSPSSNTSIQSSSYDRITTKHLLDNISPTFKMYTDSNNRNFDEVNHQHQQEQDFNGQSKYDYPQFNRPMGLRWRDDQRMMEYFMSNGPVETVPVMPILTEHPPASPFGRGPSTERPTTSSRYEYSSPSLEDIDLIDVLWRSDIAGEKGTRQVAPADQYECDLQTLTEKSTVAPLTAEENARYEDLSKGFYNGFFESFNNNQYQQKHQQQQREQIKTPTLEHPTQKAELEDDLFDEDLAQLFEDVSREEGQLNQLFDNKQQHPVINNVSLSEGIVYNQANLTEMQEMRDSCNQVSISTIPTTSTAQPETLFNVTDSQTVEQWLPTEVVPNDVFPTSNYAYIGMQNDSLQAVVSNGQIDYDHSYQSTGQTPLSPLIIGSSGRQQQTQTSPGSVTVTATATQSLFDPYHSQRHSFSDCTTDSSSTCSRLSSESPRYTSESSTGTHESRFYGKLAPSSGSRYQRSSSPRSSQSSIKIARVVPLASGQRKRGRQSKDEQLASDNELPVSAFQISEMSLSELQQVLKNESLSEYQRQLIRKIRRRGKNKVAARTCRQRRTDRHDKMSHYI

[4] = Trypanosoma cruzi growth suppression in host cells – NIH3T3 host cells, beta-gal luminescence, confirmation (AID 2044); type: functional, cell-based;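 further: intracellular parasites grown in NIH/3T3 mouse fibroblasts as host cells; luminescent beta-galactosidase reporter signal from transgenic T. cruzi replicating inside host cells; inhibitors lower the luminescence signal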
[5] = microbe, parasite or virus in culture; type: functional; details: Mycobacterium tuberculosis
[6] = NIH3T3 cell viability loss – ATP luminescence, mouse fibroblasts, counter-screen, dose response (AID 2010); type: functional, cell-based;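 further: cells exposed to compound for about 90 hours before reading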
[7] = target: T2, Heat shock factor protein 1 (Mus musculus, UniProt P38532); test: enhancement of HSF1-driven luciferase signal – cell-based, NIH3T3, luminescence, dose retest, confirmation (AID 435004); type: functional;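 further: stress induced by proteasome inhibitor MG132 added 30 min after compound; luciferase reporter driven by HSF1 response element in NIH3T3 cells; actives raise luminescence as potentiators of the MG132 stress response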
T2 sequence (P38532 whole entry): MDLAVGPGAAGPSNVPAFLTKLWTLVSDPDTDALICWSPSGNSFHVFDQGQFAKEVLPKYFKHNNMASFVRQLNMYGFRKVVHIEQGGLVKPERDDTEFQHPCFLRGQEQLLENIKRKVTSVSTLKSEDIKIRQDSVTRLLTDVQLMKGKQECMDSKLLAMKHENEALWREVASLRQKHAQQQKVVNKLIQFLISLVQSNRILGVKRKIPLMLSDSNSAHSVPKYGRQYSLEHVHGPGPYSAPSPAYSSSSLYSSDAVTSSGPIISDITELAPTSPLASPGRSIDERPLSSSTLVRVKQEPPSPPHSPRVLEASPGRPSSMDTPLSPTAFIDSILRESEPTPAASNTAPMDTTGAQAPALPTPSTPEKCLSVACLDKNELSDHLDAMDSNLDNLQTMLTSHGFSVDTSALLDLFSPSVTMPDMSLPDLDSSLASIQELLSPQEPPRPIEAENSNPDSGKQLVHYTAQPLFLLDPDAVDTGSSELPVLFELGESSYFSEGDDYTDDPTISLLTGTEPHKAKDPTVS

[8] = target: T3, Replicative DNA helicase DnaB (Mycobacterium tuberculosis, UniProt P9WMR3); test: DnaB intein splicing inhibitors, dose response, biochemical, cell-free fluorescence (AID 449749); type: functional
T3 sequence (P9WMR3 whole entry): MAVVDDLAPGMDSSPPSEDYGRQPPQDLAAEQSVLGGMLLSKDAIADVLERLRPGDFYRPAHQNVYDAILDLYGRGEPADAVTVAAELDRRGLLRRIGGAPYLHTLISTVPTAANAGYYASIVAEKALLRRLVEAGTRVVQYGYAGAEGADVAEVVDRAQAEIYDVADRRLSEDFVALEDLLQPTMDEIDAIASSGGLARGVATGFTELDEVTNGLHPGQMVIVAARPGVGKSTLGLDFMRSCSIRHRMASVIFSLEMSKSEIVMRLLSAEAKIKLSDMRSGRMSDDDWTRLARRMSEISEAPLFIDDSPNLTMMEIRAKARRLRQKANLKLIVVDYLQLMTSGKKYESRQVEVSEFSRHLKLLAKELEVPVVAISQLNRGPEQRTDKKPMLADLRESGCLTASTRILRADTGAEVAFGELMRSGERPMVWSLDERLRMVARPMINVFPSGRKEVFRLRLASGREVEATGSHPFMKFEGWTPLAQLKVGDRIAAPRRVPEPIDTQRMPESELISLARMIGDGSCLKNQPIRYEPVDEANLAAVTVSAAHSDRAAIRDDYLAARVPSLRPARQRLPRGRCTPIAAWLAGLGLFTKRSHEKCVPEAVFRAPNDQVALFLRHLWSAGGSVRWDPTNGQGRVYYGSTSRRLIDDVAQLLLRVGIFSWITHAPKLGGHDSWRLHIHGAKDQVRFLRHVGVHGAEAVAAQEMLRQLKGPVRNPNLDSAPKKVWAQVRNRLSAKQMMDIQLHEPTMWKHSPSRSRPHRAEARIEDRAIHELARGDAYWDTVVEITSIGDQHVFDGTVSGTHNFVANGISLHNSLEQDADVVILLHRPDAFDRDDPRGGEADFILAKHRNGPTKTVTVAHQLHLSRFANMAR

[9] = target: T4, Protein RecA (Mycobacterium tuberculosis, UniProt P9WHJ3); test: Fluorescence Cell-Free Homogeneous Dose Retest to Identify Inhibitors of RecA-Intein Splicing Activity. [Related pubchem assays (depositor defined):AID2097, AID2223, AID489010, AID492950]; type: functional
T4 sequence (P9WHJ3 whole entry): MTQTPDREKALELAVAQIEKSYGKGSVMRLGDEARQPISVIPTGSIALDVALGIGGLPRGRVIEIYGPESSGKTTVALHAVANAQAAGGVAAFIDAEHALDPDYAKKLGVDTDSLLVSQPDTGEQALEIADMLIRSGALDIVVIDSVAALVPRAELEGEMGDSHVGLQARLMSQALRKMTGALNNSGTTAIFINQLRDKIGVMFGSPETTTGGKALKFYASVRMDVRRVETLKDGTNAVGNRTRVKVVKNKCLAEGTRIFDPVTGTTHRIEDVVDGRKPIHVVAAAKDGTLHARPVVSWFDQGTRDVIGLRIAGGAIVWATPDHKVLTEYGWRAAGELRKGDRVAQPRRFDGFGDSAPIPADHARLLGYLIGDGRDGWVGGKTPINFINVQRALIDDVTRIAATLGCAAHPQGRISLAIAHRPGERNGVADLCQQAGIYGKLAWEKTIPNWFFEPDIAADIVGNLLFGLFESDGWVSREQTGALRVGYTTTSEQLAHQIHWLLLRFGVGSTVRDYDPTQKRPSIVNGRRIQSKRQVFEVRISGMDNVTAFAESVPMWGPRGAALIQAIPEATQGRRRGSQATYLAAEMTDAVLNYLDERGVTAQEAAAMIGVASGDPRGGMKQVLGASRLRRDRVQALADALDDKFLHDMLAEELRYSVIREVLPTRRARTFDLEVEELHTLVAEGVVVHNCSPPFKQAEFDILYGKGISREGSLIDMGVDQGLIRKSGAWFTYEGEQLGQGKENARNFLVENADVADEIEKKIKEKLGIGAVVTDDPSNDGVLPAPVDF

[10] = target: T5, Rac GTPase-activating protein 1 (Homo sapiens, UniProt Q9H0H5); test: blockers of MgcRacGAP-driven Rac1 GTP hydrolysis – biochemical, ADP Hunter fluorescence, primary and confirmatory, confirmation (AID 624330); type: functional
T5 sequence (Q9H0H5 whole entry): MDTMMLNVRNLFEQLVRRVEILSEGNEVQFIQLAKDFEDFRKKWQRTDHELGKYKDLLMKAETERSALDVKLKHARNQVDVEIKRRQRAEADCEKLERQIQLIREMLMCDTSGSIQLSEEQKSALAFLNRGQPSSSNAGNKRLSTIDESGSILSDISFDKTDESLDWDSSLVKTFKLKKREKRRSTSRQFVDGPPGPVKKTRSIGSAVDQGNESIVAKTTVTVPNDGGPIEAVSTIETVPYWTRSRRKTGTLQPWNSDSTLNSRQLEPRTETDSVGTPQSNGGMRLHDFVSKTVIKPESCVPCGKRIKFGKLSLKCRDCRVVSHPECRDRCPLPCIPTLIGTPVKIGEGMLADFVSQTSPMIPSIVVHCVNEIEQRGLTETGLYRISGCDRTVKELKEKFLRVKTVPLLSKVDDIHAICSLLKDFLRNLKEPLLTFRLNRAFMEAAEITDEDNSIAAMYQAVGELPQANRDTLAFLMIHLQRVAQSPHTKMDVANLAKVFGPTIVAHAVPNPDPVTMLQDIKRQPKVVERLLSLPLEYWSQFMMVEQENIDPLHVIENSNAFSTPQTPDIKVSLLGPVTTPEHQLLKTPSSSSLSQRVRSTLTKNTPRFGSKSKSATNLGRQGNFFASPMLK

Sequence of FAD-linked sulfhydryl oxidase ALR (P55789 whole entry): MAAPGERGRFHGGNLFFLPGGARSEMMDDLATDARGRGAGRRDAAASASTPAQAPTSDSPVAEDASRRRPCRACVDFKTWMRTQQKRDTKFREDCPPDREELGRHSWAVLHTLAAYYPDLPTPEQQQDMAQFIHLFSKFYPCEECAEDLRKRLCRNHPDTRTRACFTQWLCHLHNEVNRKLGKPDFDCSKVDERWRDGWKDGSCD

| SMILES | AC50 [1] | IC50 [3] | further results |
| --- | --- | --- | --- |
| COc1ccc(Cc2nc3ccccc3n2CC(=O)N/N=C/c2ccc(O)cc2)cc1OC | 0.901 µM (active) |  | IC50 [2]: > 100 µM (active) |
| CN(NC1CC(=O)N(c2ccccc2)C1=O)c1ccccc1 (centres undefined) | 6.83 µM (active) |  |  |
| O=C(NCc1ccncc1)c1ccc(-c2ccc(F)c(F)c2)c2ccoc12 |  | 20.2 µM (active) |  |
| Cc1ccccc1-n1c(SCC(=O)N/N=C/c2c(C)nn(-c3ccccc3)c2C)nc2ccccc2c1=O |  |  | EC50 [4]: 1.6 µM (active); CC50 [5]: > 40 µM (active); EC50 [6]: > 60 µM (not active) |
| Cc1[nH]c(C)c(S(=O)(=O)NCc2ccc(N(C)C)cc2)c1C(=O)N1CCCC1 | 16.1 µM (active) |  |  |
| Fc1cccc(-c2csc(-c3ccno3)n2)c1 |  | > 100 µM (inactive) |  |
| O=C(/C=C/Nc1ccccc1)c1ccccc1 |  | > 100 µM (inactive) | EC50 [7]: > 260 µM (inconclusive) |
| O=c1c2cc3c(cc2[nH]c(=S)n1Cc1ccco1)OCO3 |  | > 100 µM (inactive) |  |
| Cc1ccc(S(=O)(=O)NN2C(=O)/C(=C/c3cccnc3)SC2=S)cc1 | 4.96 µM (active) |  |  |
| Cc1ccc(N(CCC#N)C(=O)CCl)cc1C |  |  | EC50 [4]: 3.59 µM (active); AC50 [8]: 167 µM (active); CC50 [5]: 1.84 µM (active); EC50 [6]: 4.81 µM (active); EC50 [9]: 5.7 µM (active) |
| O=C(Nc1nc(-c2ccccc2)cs1)c1cccs1 |  | 59.9 µM (inactive) |  |
| N#CCC(=O)Nc1ccc(C(=O)Nc2cccnc2)cc1 | 0.87 µM (active) |  |  |
| CC/C(=C\c1ccc(Cl)cc1)c1ccncc1 |  | 13.5 µM (active) |  |
| CCCC(=O)N(CCN1CCOCC1)c1nc2c(OCC)cccc2s1 |  | > 100 µM (inactive) |  |
| Clc1ccc(-c2cn3cccnc3n2)cc1Cl |  | > 100 µM (inactive) |  |
| COC(=O)c1ccccc1N=Nc1c(N)n[nH]c1N | 6.65 µM (active) |  |  |
| c1ccc(CN2CCC(=NNc3nc4ccccc4[nH]3)CC2)cc1 | 2.31 µM (active) |  |  |
| Cc1cccc(-c2nc3c(c(SCC(=O)N4CCOCC4)n2)CCCC3)c1 |  | > 100 µM (inactive) |  |

| SMILES | AC50 [1] | IC50 [3] | further results |
| --- | --- | --- | --- |
| COc1ccc(C2C(C(=O)OC(C)C)=C(C)N=c3s/c(=C\c4cccs4)c(=O)n32)cc1 (centres undefined) |  | > 100 µM (inactive) |  |
| COc1cc(/C=N/N2C(C)CCCC2C)cc(Br)c1O (centres undefined) | 0.495 µM (active) |  |  |
| CC(C)CN1C(=O)NC(NS(=O)(=O)c2ccc(N)cc2)(C(F)(F)F)C1=O (centres undefined) | 0.73 µM (active) |  |  |
| CC(=O)N1CCN=C1SCc1c(F)cccc1Cl | 0.631 µM (active) |  |  |
| Cc1nc(NC(=O)C2CC3CCCC(C2)C3=O)sc1C (centres undefined) |  | > 100 µM (inactive) |  |
| COc1ccc(-c2cc(=O)oc3c(O)c(O)ccc23)cc1 | 1.35 µM (active) |  | IC50 [2]: 8.81 µM (active) |
| c1ccc(-c2cnc(-c3ccccc3)nn2)cc1 |  | 78.4 µM (inactive) |  |
| Cc1ccc(NC(=O)COC(=O)C2(C)CC2(Cl)Cl)cc1S(=O)(=O)N1CCOCC1 (centres undefined) |  | > 100 µM (inactive) |  |
| O=C1/C(=C\c2ccc(C(F)(F)F)cc2)CSc2sccc21 |  | 69.4 µM (inactive) |  |
| Cc1cc2ncn(C(=O)c3ccc(F)cc3)c2cc1C | 5.34 µM (active) |  |  |
| COc1ccc(CNC(C)C(=O)Nc2ccc3ccccc3c2)cc1OC (centres undefined) |  | > 100 µM (inactive) |  |
| CC1(Cc2ccc(OC(F)(F)F)cc2)C(=O)Nc2ccc(OC(F)(F)F)cc21 (centres undefined) |  | 34.3 µM (active) |  |
| COc1cc(/C=N/NC(=O)CNC(=O)c2ccco2)ccc1O | 3.47 µM (active) |  | IC50 [10]: 38.5 µM (active); IC50 [2]: 6.31 µM (active) |
| Cc1nc(C)c(CC(=O)N/N=C/c2ccc(O)cc2)c(O)n1 | 2.17 µM (active) |  | IC50 [10]: 69.6 µM (active) |
| COc1cc2c(OC)c3ccoc3nc2cc1O | 0.49 µM (active) |  | IC50 [2]: 20 µM (active) |
| O=S(=O)(Nc1ccc(N2CCCCC2)cc1)c1ccccc1F | 2.08 µM (active) |  |  |
| Cc1c(NC(=O)CSc2ccc3c(c2)OCCO3)c(=O)n(-c2ccccc2)n1C |  | > 100 µM (inactive) |  |
| COc1ccc(-c2cc(C(=O)Nc3c(C)n(C)n(-c4ccccc4)c3=O)c3ccccc3n2)c(OC)c1 |  | > 100 µM (inactive) |  |
